This is an account of results in publication PMC3359661, “FK228 Analogues Induce Fetal Hemoglobin in Human Erythroid Progenitors” (Anemia, 2012).

Holding throughout (format): cell-based, human
In data set [1] the test system is γ-globin transcription in primary erythroid progenitors. As to the kind of experiment: RT-qPCR of γ-globin mRNA in primary erythroid progenitors (two-phase liquid culture). To be noted: Day 11 erythroid progenitors treated 48 hr (Figure 3 legend), untreated normalized to one. On the procedure: (§1) The two-phase liquid culture system was established as previously published by Fibach et al. using buffy coat mononuclear cells, purchased from Carter Blood Care (Fort Worth, TX) in accordance with the guidelines of the Institutional Review Board at the University of Texas at Dallas. During phase 1, cells were grown in IMDM medium with 30% fetal bovine serum and 50 ng/mL each of the granulocyte-monocyte colony-stimulating factor, Interleukin-3, and stem cell factor. Subsequently, phase 2 was initiated on day 7 with the addition of erythropoietin (2 U/mL) and stem cell factor (50 ng/mL). The cells were treated on Day 11 with the different test compounds and harvested on Day 14 (72 hr incubation).
Total RNA was isolated from samples using RNA Stat-60 (TEL-TEST “B” Inc., Friendswood, TX) and used for RT-qPCR analysis as previously published. […] The globin mRNA levels were calculated as a ratio of GAPDH (γ/GAPDH, β/GAPDH), and the γ/β-globin mRNA ratio was calculated by dividing γ/GAPDH by β/GAPDH.
Figure 3 JMA33 and JMA26 induce HbF in primary erythroid cells. (a) Day 11 erythroid progenitors were treated for 48 hr with the controls agents and the FK228 analogues shown and then analyzed by RT-qPCR. […] Data were calculated as the means ± SEM. […] The images generated were used to count 500 DAPI positive cells and the %FITC positive cells were calculated accordingly.

Data set [2] deals with HbF-positive primary erythroid progenitors. As to the kind of experiment: Anti-HbF FITC immunostaining of primary erythroid progenitors. To be noted: anti-HbF FITC / DAPI, 500 cells counted; 15.5% HbF-positive at baseline in untreated cells. On the procedure:
as §1
Primary erythroid progenitor cytospin cell preparations were fixed with 4% paraformaldehyde in phosphate buffered saline for 15 min, washed, and then permeabilized with 0.3% Trition-100 solution for 10 min. Cells were then blocked in a 5% bovine serum albumin solution and immunostaining performed at 4°C overnight with anti-HbF fluorescein isothiocyanate (FITC) conjugated antibody (Bethyl Laboratories Inc., TX). Cell nuclei were stained with mounting medium containing 4′,6-diamidino-2-phenylindole (DAPI; Santa Cruz Biotechnology, CA). Primary cells were photographed with an Olympus BX 51 phase contrast epifluorescent microscope equipped with Hoffman Modulation optics. Phase-contrast images were recorded with a CCD camera (1/100 sec exposure) and fluorescence images were photographed through 485/520 nm emission filter. The percent of HbF positive cells was calculated by dividing the number of FITC positive cells by total cells (DAPI positive).
Figure 3 JMA33 and JMA26 induce HbF in primary erythroid cells. (a) Day 11 erythroid progenitors were treated for 48 hr with the controls agents and the FK228 analogues shown and then analyzed by RT-qPCR. Untreated cells (UT) were used as a control and normalized to one. Data were calculated as the means ± SEM. […] The images generated were used to count 500 DAPI positive cells and the %FITC positive cells were calculated accordingly.

Data set [3] has as its system HDAC activity in HeLa cells. As to the kind of experiment: HDAC Fluorescent Activity Assay (Fluor de Lys) in HeLa cells. To be noted: 300 nM; HeLa cells, Fluor de Lys substrate; maximal inhibition. The protocol:
(§2) The HDAC Fluorescent Activity Assay (Enzo Life Science, Farmingdale, NY) was used to measure HDAC inhibition in HeLa cells in a 96-well format using Trichostatin A as the positive control per the manufacturer's protocol. This assay is based on the Fluor de Lys (Fluorogenic Histone Deacetylase Lysyl (FDL)) Substrate/Developer. The procedure was as follows: the test compounds FK228, JMA26, and JMA33 were added to HeLa cells along with the FDL substrate to allow intracellular drug activation then fluorescence levels were read on the fluorometer at 440 nm (CytoFluor II, PerSeptive Biosystems, Farmingdale, NY). The drug concentrations tested were based on the amount required for HbF induction in primary cells. Data was reported as the mean ± standard deviation (SD) for at least five replicates.
(§3) To ascertain the mechanism of HbF induction by the lead compounds, we performed an in vivo assay to investigate the ability of JMA26 and JMA33 to act as HDAC inhibitors. The HDAC Fluorescent Activity Assay designed to measure HDAC activity in HeLa cells was completed in a 96-well format. The assay is based on the fact that the Fluor de Lys substrate is deacetylated by HDACs to generate a fluorescent readout. TSA (0.5 to 1000 nM) was used to establish the assay in HeLa cells, showing about 80% HDAC inhibition in our system (Figure 4(a)).
(§4) Figure 4 HDAC inhibition assay. The HDAC Fluorescent Activity Assay was used to measure HDAC inhibition in HeLa cells (See Section 2). Compounds and FDL substrate were added to HeLa cells to allow drug activation in vivo then fluorescence levels were quantified on the fluorometer at 440 nm. (a) Trichostatin A (TSA) was used as the control. (b) Inhibition studies were conducted for FK228 showing maximal HDAC inhibition at the 300 nM concentration. (c) Similar studies were performed for JMA33 and JMA26. The data are reported as the means ± SEM.

A further data set deals with HeLa cells. The data set is described as above. To be noted: 300 nM. The protocol:
as §2, §3, §4

Turning to FK228, in data set [1], the “induction of γ-globin transcription at the mRNA level” value was ≤ 3.2 fold. The “increase in HbF-positive cells” value in data set [2] is given as 3.5 fold. Also, in data set [3], the HDAC inhibition result is given as “about 85%”. Further, in the data set on HeLa cells, the cell toxicity result is listed as “marked cell toxicity”.
